Results on 2 molecules are retold here after patent US4073908A, “8-Amino-theophylline derivatives and therapeutic applications thereof” (Laboratoire le Brun S.A., priority 1975, dated 1978).

A value given as a limit tells only on which side of the number the result lay.

In one series the test system is rotarod test in mice. Briefly: Incapacitating effect: rotarod test. The note with it: compared with chlordiazepoxide. It counts as in vivo. From the text: a. Incapacitating effect: rotarod test in mice.
On the technique in general: The rotarod test checks motor coordination on a turning rod.

The test system of series [1] is aggressiveness in mice-killing rats. Briefly: Anti-aggressive: aggressiveness in mice-killing rats. The note with it: for ED50: Rattus norvegicus, oral, read-out: Oral AD50, mice-killing rats. It counts as in vivo. How it is done: (§1) d. aggressiveness in mice-killing rats.
(§2) In all cases, the AD50 values were determined by the oral route.

The next series relates to learning in rats. The series can be described thus: Effect on learning: Shuttle-box test. It counts as in vivo. Particulars: compared with chlordiazepoxide. An excerpt: f. Effect on learning in rats: Shuttle-box test.
A further series can be described thus: Acute toxicity in mice. It counts as in vivo. Particulars: mouse, in vivo, single administration. An excerpt: (§3) Acute toxicity in mice by the sub-cutaneous and oral routes and in rats by the oral route was investigated by determination of the death rate following a single administration of increasing dosages.
(§4) Symbol > means that the LD50 is not attained at the dosage indicated.

Another series has as its system mice. Briefly: Acute toxicity in mice. It counts as in vivo. Particulars: oral route, single administration.
Source text: as §3, §4

Series [2] concerns aggressiveness subsequent to electric shocks in rats. The series can be described thus: Anti-aggressive: aggressiveness subsequent to electric shocks, rats. It counts as in vivo. Particulars: Rattus norvegicus, oral, read-out: Oral AD50, electric shock in rats. How it is done: (§5) a. aggressiveness subsequent to electric shocks in mice and rats,
as §2

In another series the test system is catalepsy and ptosis. The series can be described thus: Neuroleptic effects: catalepsy and ptosis. Particulars: in vivo.
Series [3] deals with narcosis induced by ethanol in mice. The series can be described thus: Effect on narcosis induced by ethanol. It counts as in vivo. An excerpt:
(§6) d. Effect on narcosis induced by pentobarbital and ethanol in mice.

Series [4] deals with stereotypy induced by apomorphine injection in rats. The series can be described thus: Effect on stereotypy induced by apomorphine injection. It counts as in vivo. An excerpt:
e. Effect on stereotypy induced by apomorphine injection in rats.

The subject of series [5] is rats. The series can be described thus: Oral subacute toxicity in rats. It counts as in vivo. The note with it: 1 month old rats, up to a daily dosage of 100 mg/kg. From the text: Oral subacute toxicity in rats was investigated by determination of the death rate (if any), of the change in the weight of some organs, and by hematologic examinations, and the like.
Subacute toxicity in 1 month old rats, with compounds Nos. 11 and 18

Series [6] has as its system rats. The series can be described thus: Acute toxicity in rats. It counts as in vivo. The note with it: single administration.
Source text: as §3, §4

Series [7] relates to narcosis induced by pentobarbital in mice. Briefly: Effect on narcosis induced by pentobarbital. It counts as in vivo. Particulars: compared with chlordiazepoxide.
Source text: as §6

For series [8], the system named is aggressiveness subsequent to apomorphine injection in rats. The series can be described thus: Anti-aggressive: aggressiveness subsequent to apomorphine injection, rats. Particulars: Rattus norvegicus, oral, apomorphine injection 1 mg/kg, read-out: Oral AD50, apomorphine, in rats. It counts as in vivo. The procedure: (§7) b. aggressiveness subsequent to apomorphine injection (1 mg/kg, in vivo) in rats,
as §2

Series [9] concerns aggressiveness subsequent to electric shocks in mice. The series can be described thus: Anti-aggressive: aggressiveness subsequent to electric shocks, mice. The note with it: Mus musculus, oral, read-out: Oral AD50, electric shock in mice. It counts as in vivo. How it is done: as §5, §2
In series [10] the test system is reserpine effect on temperature and ptosis. Briefly: Anti-reserpine effect on temperature and ptosis. It counts as in vivo. Particulars: compared with Imipramine. From the text:
b. Anti-reserpine effect on temperature and ptosis.

Series [11] deals with aggressiveness in mice and rats. Briefly: Anti-aggressive tests overall. It counts as in vivo. Particulars: oral. The procedure:
as §5, §7
(§8) c. aggressiveness subsequent to extended isolation, in mice,
as §1, §2

The subject of series [12] is cardiazol convulsions in mice. Briefly: Anti-convulsant effect with respect to cardiazol. It counts as in vivo. The note with it: compared with chlordiazepoxide. From the text: c. Anti-convulsant effect with respect to cardiazol in mice.
For series [13], the system named is aggressiveness subsequent to extended isolation in mice. The series can be described thus: Anti-aggressive: aggressiveness subsequent to extended isolation, mice. It counts as in vivo. The note with it: Mus musculus, oral, read-out: Oral AD50, isolated mice. The procedure:
as §8, §2

The next series relates to writhing in mice. The series can be described thus: Antalgic: writhing test in mice (intraperitoneal acetic acid). Particulars: Mus musculus, oral route, read-out: AD50 on administration of acetic acid. It counts as in vivo. How it is done: (§9) The following tests were carried out:
(§10) a. writhing test in mice, by the oral route (on intraperitoneal administration of acetic acid),
A general note: An intraperitoneal irritant provokes the stretching counted in writhing tests.

A further series has as its system motor activity in mice. Briefly: Motor-stimulant or -depressant activity, light-beam activometer. It counts as in vivo. Particulars: sub-cutaneous or oral routes. How it is done:
The motor-stimulant or -depressant activities were investigated in mice by the sub-cutaneous or oral routes by means of an activometric technique (light-beam activometer).
The dosages which increase or decrease the number of cases over the 50% limit were determined with respect to concomitantly effected reference tests.

In series [14] the test system is group toxicity of amphetamine in mice. The series can be described thus: Antagonistic activity on the group toxicity of amphetamine in mice. It counts as in vivo. Particulars: Mus musculus, read-out: AD50, antagonistic activity on the group toxicity of amphetamine.
The test system of series [15] is antalgic activity in mice. Briefly: Antalgic activity overall (writhing and hot-plate). It counts as in vivo. The procedure: as §9, §10
(§11) b. hot-plate test: licking reflex in mice on a plate heated at 65° C.

A further series concerns licking reflex in mice. Briefly: Antalgic: hot-plate test, licking reflex. Particulars: Mus musculus, plate heated at 65° C., read-out: AD50 in the hot-plate test (licking reflex). It counts as in vivo. How it is done:
as §9, §11

A further series can be described thus: Acute toxicity in rats. Particulars: rat, in vivo, po, single administration. It counts as in vivo.
Source text: as §3, §4

The test system of another series is psychotropic activity. Briefly: Psychotropic activity, overall profile. Particulars: in vivo. From the text:
The psychotropic and anti-inflammatory effects of the derivatives of this invention were investigated according to several methods described hereinafter.

Setting [16] is: sc, read-out: LD50, s.c. route, mice.

As usually defined, the LD50 is the dose expected to kill half of the subjects tested. Regarding `Cn1c(=O)c2c(nc3n2CCN3CCN2CCN(c3cccc(Cl)c3)CC2)n(C)c1=O` [Compound 11], the incapacitating effect result with rotarod test in mice is on record as “does not, as the latter compound, exhibit incapacitating”. The ED50 in series [1] was found to be 50 mg/kg; in series [2], 45 mg/kg; in series [8], 140 mg/kg; in [9] it was 30 mg/kg; in [13] it was 10 mg/kg. Also, the “activity in the mice-killing test in rats relative to Imipramine” value in series [1] (compared with Imipramine) is listed as “Superior to Imipramine in the mice-killing test in rats”. The learning-delaying effect entry with learning in rats is “does not, as the latter compound, exhibit incapacitating, anti-convulsant, pentobarbitalor ethanol-induced narcosis-potentiating, or learning-delaying effects”. Also, the LD50 in “Acute toxicity in mice” (setting [16]) is over 300 mg/kg. Also, the “LD50, oral route, mice” value in the series on mice is 450 mg/kg. For the same molecule, in the series on catalepsy and ptosis, the catalepsy result was “absence of apomorphinic anti-stereotypy, of catalepsy”. Further, the ptosis result in the series on catalepsy and ptosis is “absence of apomorphinic anti-stereotypy, of catalepsy and of ptosis”. In series [3], the ethanol-induced narcosis-potentiating effect result was “does not, as the latter compound, exhibit incapacitating, anti-convulsant, pentobarbitalor ethanol-induced narcosis-potentiating”. The apomorphinic anti-stereotypy entry in series [4] is on record as “absence of apomorphinic anti-stereotypy”. The “death rate (fatal issue)” value with rats [5] was “No fatal issue was noted”. In addition, in the series on rats [6], the “LD50, oral route, rats” value is listed as 1000 mg/kg. Also, in [7], the pentobarbital-induced narcosis-potentiating effect result is “does not, as the latter compound, exhibit incapacitating, anti-convulsant, pentobarbitalor ethanol-induced narcosis-potentiating”. For the same molecule, the anti-reserpinic effect entry in series [10] is “absence of anti-reserpinic effect”. Besides, in series [11], the “anti-aggressive activity (in words)” value is listed as “in most cases, are superior to those of chlordiazepoxide in the anti-aggressive tests”. Moreover, in series [12], the anti-convulsant effect entry is given as “does not, as the latter compound, exhibit incapacitating, anti-convulsant”.

For the molecule `Cn1c(=O)c2c(nc3n2CCCN3CCN2CCN(c3cccc(Cl)c3)CC2)n(C)c1=O` [Compound 18, 9-(2-4-(m-chlorophenyl)piperazin-1-yl!-ethyl)1,3-dimethyl-6,7,8,9-tetrahydropyrimidino(2,1-f)-purine-2,4-dione], the ED50 in the series with writhing in mice stood at 13 mg/kg; in the series on motor activity in mice (Mus musculus, read-out: AD50, sedative action), 7.5 mg/kg; in [1], 22 mg/kg; in series [14], 20 mg/kg; in [2], 45 mg/kg; in the series on licking reflex in mice, 8.5 mg/kg. The ED50 turned out to be 85 mg/kg in [8], 15 mg/kg in [9] and 9 mg/kg in [13]. For the same molecule, in the series with motor activity in mice, the “sedative action (in words)” value is on record as “more sedative”. For the same molecule, the LD50 in the series “Acute toxicity in mice” (po, read-out: LD50, oral route, mice) was over 300 mg/kg; in the series “Acute toxicity in mice” (setting [16]), over 300 mg/kg; in the series “Acute toxicity in rats”, over 100 mg/kg. Further, the ethanol-induced narcosis-potentiating effect entry in [3] was “potentiates ethanol-induced narcosis”. The “antalgic activity (in words)” value in series [15] is on record as “more antalgic”. The “death rate (fatal issue)” value in the series on rats [5] is “No fatal issue was noted”. The “psychotropic activity (in words)” value in the series with psychotropic activity was “has the same characteristics”.
